Assay results: publication PMC5736175, “Nicotinic alpha 7 receptor agonists EVP-6124 and BMS-933043, attenuate scopolamine-induced deficits in visuo-spatial paired associates learning” (PLoS ONE, 2017)
Several values for one entry are separate records, joined by “and”; a condition that tells them apart may be missing. Identical values can stand only once. Entries after “also recorded” stand apart in the source; their conditions may differ.

What was measured:
[1] = system: scopolamine-treated cynomolgus monkeys; experiment: Scopolamine-induced impairment of vsPAL task performance, treatment + scopolamine; assay type: in vivo, cynomolgus monkeys (Macaca Fasicularis)
Method: Doses cited refer to the free base form of the compounds. […] All drugs were administered intramuscularly (i.m.) in a dosing volume of 0.1–0.2 ml/kg.
On days when compound testing occurred, approximately half the cohort received one dose and the remainder another dose of the same compound and therefore dose order was staggered between animals. With the exception of EVP-6124, all other compounds were tested in a single dose response study.
Cohen’s d values of >0.2, >0.5 and >0.8 are described using the conventions of small, medium, and large effects, respectively.

[2] = Plasma pharmacokinetics in satellite animals (LC-MS/MS), 60 min after i.m. dose; conditions: for concentration at 60 min: cynomolgus monkey, plasma, intramuscular
Method: For all compounds, plasma pharmacokinetic studies were conducted in a separate cohort of cynomolgus monkeys (N = 2–3 subjects per dose) before beginning vsPAL testing to help guide dose selection. Blood samples were obtained with the animals awake and sitting in a primate chair.
Plasma concentrations of test compounds were determined using LC-MS/MS assays. In brief, 50 μL plasma and sample containing compounds was extracted by protein precipitation method with 150 μL acetonitrile containing an internal standard. A 5 μL sample of supernatant was injected into the LC-MS/MS system. Analytes were separated by reversed phase chromatography and detection of each analyte was achieved through selected reaction monitoring mode of mass spectrometry. Samples were quantified by calculated peak area ratio of analyte and internal standard against a calibration curve.

human nAChR α7 [3] = system: human nAChR α7; design: method as in PMID 20959364, PMID 22085888; conditions: xenopus oocytes expressing human nAChR α7; cited from earlier work
human nAChR α7 [4] = system: human nAChR α7; design: method as in PMID 20959364; conditions: QM7 cells expressing human nAChR α7; cited from earlier work
5-HT3 receptor = conditions: cited from earlier work
[5] = RG3487 0.03 mg/kg + Individualized Scopolamine, MEAN of 8 animals
[6] = RG3487 0.03 mg/kg + Individualized Scopolamine, individual animals, 0.03 mg/kg
[7] = RG3487 0.03 mg/kg + scopolamine, MEAN of 8 animals
[8] = RG3487 0.03 mg/kg + scopolamine, individual animals, 0.03 mg/kg
[9] = RG3487 0.1 mg/kg + Individualized Scopolamine, MEAN of 8 animals
[10] = RG3487 0.1 mg/kg + Individualized Scopolamine, individual animals, 0.1 mg/kg
[11] = RG3487 0.1 mg/kg + scopolamine, MEAN of 8 animals
[12] = RG3487 0.1 mg/kg + scopolamine, individual animals, 0.1 mg/kg
[13] = RG3487 0.3 mg/kg + scopolamine, MEAN of 8 animals
[14] = RG3487 0.3 mg/kg + scopolamine, individual animals, 0.3 mg/kg
[15] = RG3487 1.0 mg/kg + scopolamine, MEAN of 8 animals
[16] = RG3487 1.0 mg/kg + scopolamine, individual animals, 1 mg/kg
[17] = all doses of the study, for EVP-6124 study (1)
[18] = compound 0.03 mg/kg i.m. + Scopolamine
[19] = compound 0.10 mg/kg i.m. + Scopolamine
[20] = compound 0.30 mg/kg i.m. + Scopolamine
[21] = compound 1.00 mg/kg i.m. + Scopolamine

- nM total compound in plasma from satellite animals, 60 min ([2]; 0.10 mg/kg i.m., individual subjects): 74.4 nM
- nM total compound in plasma from satellite animals, 60 min ([2]; 0.30 mg/kg i.m., individual subjects): 132.0 nM
- nM total compound in plasma from satellite animals, 60 min ([2]; 1.00 mg/kg i.m., individual subjects): 305.0 nM
- concentration at 60 min ([2]; 0.1 mg/kg, nM total compound in plasma from satellite animals, 60 min, 0.10 mg/kg i.m., individual subjects): 42.9 nM
- concentration at 60 min ([2]; 0.1 mg/kg, nM total compound in plasma from satellite animals, 60 min, 0.10 mg/kg i.m., mean): 58.7 nM
- concentration at 60 min ([2]; 0.3 mg/kg, nM total compound in plasma from satellite animals, 60 min, 0.30 mg/kg i.m., individual subjects): 114 nM
- concentration at 60 min ([2]; 0.3 mg/kg, nM total compound in plasma from satellite animals, 60 min, 0.30 mg/kg i.m., mean): 123 nM
- concentration at 60 min ([2]; 1 mg/kg, nM total compound in plasma from satellite animals, 60 min, 1.00 mg/kg i.m., individual subjects): 595 nM
- concentration at 60 min ([2]; 1 mg/kg, nM total compound in plasma from satellite animals, 60 min, 1.00 mg/kg i.m., mean): 450 nM
- concentration at 60 min ([2]; exposures (predicted and measured), 0.03-1 mg/kg im dose range): 15 to 450 nM
- concentration at 60 min ([2]; mean plasma concentrations, satellite animals 60 min post-administration, 0.1-1.0 mg/kg dose range): 58.7 to 450 nM
Structure (SMILES): Cl.O=C(N[C@@H]1CN2CCC1CC2)c1n[nH]c2ccccc12 [RG3487, N-[(3S)-1-Azabicyclo[2.2.2]oct-3-yl]-1H-indazole-3-carboxamide HCl]
- Initial Correct, 3 Stimuli [1, 5]: 43.8%
- Initial Correct, 4 Stimuli [1, 5]: 25.0%
- Initial Correct, Overall Mean % Correct [1, 5]: 50.8%
- Initial correct, 2 Stimuli [1, 5]: 83.8%
- Initial Correct, 3 Stimuli [1, 6]: 60.0% and 20.0% and 40.0% and 30.0% and 90.0% and 10.0% and 80.0%
- Initial Correct, 4 Stimuli [1, 6]: 30.0% and 0.0% and 50.0% and 40.0%
- Initial Correct, Overall Mean % Correct [1, 6]: 60.0% and 36.7% and 46.7% and 76.7% and 40.0% and 30.0% and 70.0%
- Initial correct, 2 Stimuli [1, 6]: 90.0% and 70.0% and 60.0% and 100.0% and 80.0%
- Eventual Correct, 4 Stimuli ([1]; RG3487 0.03 mg/kg + scopolamine, MEAN): 59.5%
- % Completion [1, 7]: 73.5%
- Average Response Latency (Avg Rsp Lat) [1, 7]: 2136.0 ms
- Eventual Correct, 2 Stimuli [1, 7]: 98.8%
- Eventual Correct, 3 Stimuli [1, 7]: 83.8%
- Eventual Correct, Overall Mean % Correct [1, 7]: 78.2%
- % Completion [1, 8]: 66.2% and 53.1% and 100.0% and 69.9% and 90.5% and 22.8% and 97.3% and 88.2%
- Average Response Latency (Avg Rsp Lat) [1, 8]: 2657.3 ms and 2531.6 ms and 1590.6 ms and 1325.7 ms and 2502.3 ms and 1742.8 ms and 2670.3 ms and 2067.1 ms
- Eventual Correct, 2 Stimuli [1, 8]: 100.0% and 90.0%
- Eventual Correct, 3 Stimuli [1, 8]: 100.0% and 60.0% and 70.0% and 50.0% and 90.0%
- Eventual Correct, 4 Stimuli [1, 8]: 50.0% and 0.0% and 90.0% and 70.0% and 100.0% and 16.7%
- Eventual Correct, Overall Mean % Correct [1, 8]: 83.3% and 50.0% and 96.7% and 80.0% and 100.0% and 68.9%
- Initial Correct, 3 Stimuli [1, 9]: 47.5%
- Initial Correct, 4 Stimuli [1, 9]: 13.8%
- Initial Correct, Overall Mean % Correct [1, 9]: 50.4%
- Initial correct, 2 Stimuli [1, 9]: 90.0%
- Initial Correct, 3 Stimuli [1, 10]: 70.0% and 10.0% and 60.0% and 50.0% and 80.0% and 40.0% and 30.0%
- Initial Correct, 4 Stimuli [1, 10]: 20.0% and 0.0% and 30.0% and 10.0% and 50.0%
- Initial Correct, Overall Mean % Correct [1, 10]: 63.3% and 30.0% and 46.7% and 56.7% and 43.3%
- Initial correct, 2 Stimuli [1, 10]: 100.0% and 80.0% and 90.0%
- % Completion [1, 11]: 75.6%
- Average Response Latency (Avg Rsp Lat) [1, 11]: 2202.7 ms
- Eventual Correct, 2 Stimuli [1, 11]: 100.0%
- Eventual Correct, 3 Stimuli [1, 11]: 91.3%
- Eventual Correct, 4 Stimuli [1, 11]: 48.1%
- Eventual Correct, Overall Mean % Correct [1, 11]: 79.8%
- Eventual Correct, 2 Stimuli ([1]; RG3487 0.1 mg/kg + scopolamine, individual animals): 100.0%
- % Completion [1, 12]: 58.8% and 65.1% and 100.0% and 88.7% and 67.1% and 35.0% and 91.9% and 98.1%
- Average Response Latency (Avg Rsp Lat) [1, 12]: 2536.1 ms and 2248.5 ms and 1598.6 ms and 1289.8 ms and 2048.9 ms and 2712.3 ms and 2472.3 ms and 2715.2 ms
- Eventual Correct, 3 Stimuli [1, 12]: 100.0% and 80.0% and 70.0%
- Eventual Correct, 4 Stimuli [1, 12]: 50.0% and 16.7% and 80.0% and 70.0% and 40.0% and 11.1% and 100.0%
- Eventual Correct, Overall Mean % Correct [1, 12]: 83.3% and 65.6% and 93.3% and 90.0% and 80.0% and 63.7% and 62.2% and 100.0%
- % Completion [1, 13]: 74.7%
- Average Response Latency (Avg Rsp Lat) [1, 13]: 2047.1 ms
- Initial Correct, 3 Stimuli [1, 13]: 42.5%
- Initial Correct, 4 Stimuli [1, 13]: 20.4%
- Initial Correct, Overall Mean % Correct [1, 13]: 48.9%
- Initial correct, 2 Stimuli [1, 13]: 83.8%
- % Completion [1, 14]: 48.2% and 79.1% and 98.4% and 87.1% and 95.1% and 24.7% and 100.0% and 65.1%
- Average Response Latency (Avg Rsp Lat) [1, 14]: 1983.4 ms and 2543.8 ms and 1430.4 ms and 1376.1 ms and 2172.3 ms and 1933.4 ms and 2432.3 ms and 2505.1 ms
- Initial Correct, 3 Stimuli [1, 14]: 30.0% and 70.0% and 0.0% and 40.0%
- Initial Correct, 4 Stimuli [1, 14]: 0.0% and 12.5% and 30.0% and 10.0% and 60.0% and 20.0%
- Initial Correct, Overall Mean % Correct [1, 14]: 43.3% and 37.5% and 63.3% and 76.7% and 20.0% and 46.7% and 60.0%
- Initial correct, 2 Stimuli [1, 14]: 100.0% and 70.0% and 90.0% and 40.0%
- % Completion [1, 15]: 78.8%
- Average Response Latency (Avg Rsp Lat) [1, 15]: 2200.2 ms
- Eventual Correct, 2 Stimuli [1, 15]: 100.0%
- Eventual Correct, 3 Stimuli [1, 15]: 85.0%
- Eventual Correct, 4 Stimuli [1, 15]: 54.2%
- Eventual Correct, Overall Mean % Correct [1, 15]: 79.7%
- Initial Correct, 3 Stimuli [1, 15]: 48.8%
- Initial Correct, 4 Stimuli [1, 15]: 22.2%
- Initial Correct, Overall Mean % Correct [1, 15]: 49.5%
- Initial correct, 2 Stimuli [1, 15]: 77.5%
- Eventual Correct, 2 Stimuli ([1]; RG3487 1.0 mg/kg + scopolamine, individual animals): 100.0%
- % Completion [1, 16]: 70.4% and 84.7% and 100.0% and 97.1% and 94.2% and 27.7% and 96.4% and 60.3%
- Average Response Latency (Avg Rsp Lat) [1, 16]: 2560.1 ms and 2640.7 ms and 1701.5 ms and 1446.7 ms and 1640.8 ms and 2013.9 ms and 2805.9 ms and 2791.8 ms
- Eventual Correct, 3 Stimuli [1, 16]: 100.0% and 70.0% and 80.0% and 90.0%
- Eventual Correct, 4 Stimuli [1, 16]: 80.0% and 33.3% and 50.0% and 70.0% and 16.7%
- Eventual Correct, Overall Mean % Correct [1, 16]: 93.3% and 77.8% and 73.3% and 83.3% and 90.0% and 62.2% and 71.1% and 86.7%
- Initial Correct, 3 Stimuli [1, 16]: 70.0% and 50.0% and 20.0% and 80.0% and 30.0%
- Initial Correct, 4 Stimuli [1, 16]: 30.0% and 11.1% and 10.0% and 50.0% and 0.0% and 16.7%
- Initial Correct, Overall Mean % Correct [1, 16]: 66.7% and 37.0% and 30.0% and 60.0% and 70.0% and 33.3% and 38.9%
- Initial correct, 2 Stimuli [1, 16]: 100.0% and 50.0% and 60.0% and 80.0% and 70.0%
- Holm-Sidak Post-Hoc, Treatment+Scopolamine differs from Vehicle+Scopolamine: percent correct on initial attempt, 3-stimuli ([1]; all doses of the study): n.s.
- Holm-Sidak Post-Hoc, Treatment+Scopolamine differs from Vehicle+Scopolamine: Choice Response Latency [1, 17]: n.s.
- Holm-Sidak Post-Hoc, Treatment+Scopolamine differs from Vehicle+Scopolamine: Percent Task Completed [1, 17]: n.s.
- Holm-Sidak Post-Hoc, Treatment+Scopolamine differs from Vehicle+Scopolamine: percent correct on initial attempt, 2-stimuli [1, 17]: n.s.
- Holm-Sidak Post-Hoc, Treatment+Scopolamine differs from Vehicle+Scopolamine: percent correct on initial attempt, 4 stimuli [1, 17]: n.s.
- Percent Correct on Initial Attempt (SEM), 2 stimuli [1, 18]: 83.8% (4.6%)
- Percent Correct on Initial Attempt (SEM), 3 stimuli [1, 18]: 43.8% (10.5%)
- Percent Correct on Initial Attempt (SEM), 4 stimuli [1, 18]: 25.0% (7.8%)
- Percent Correct on Initial Attempt (SEM), 2 stimuli [1, 19]: 90.0% (3.3%)
- Percent Correct on Initial Attempt (SEM), 3 stimuli [1, 19]: 47.5% (8.0%)
- Percent Correct on Initial Attempt (SEM), 4 stimuli [1, 19]: 13.8% (6.5%)
- Percent Correct on Initial Attempt (SEM), 2 stimuli [1, 20]: 83.8% (7.1%)
- Percent Correct on Initial Attempt (SEM), 3 stimuli [1, 20]: 42.5% (9.0%)
- Percent Correct on Initial Attempt (SEM), 4 stimuli [1, 20]: 20.4% (7.5%)
- Percent Correct on Initial Attempt (SEM), 2 stimuli [1, 21]: 77.5% (6.2%)
- Percent Correct on Initial Attempt (SEM), 3 stimuli [1, 21]: 48.8% (8.3%)
- Percent Correct on Initial Attempt (SEM), 4 stimuli [1, 21]: 22.2% (5.6%)
- effect on scopolamine-induced impairment of eventual accuracy ([1]; dose range 0.03-1.0 mg/kg i.m.): not efficacious; also recorded: failed to improve eventual accuracy; also recorded: no reversal
- maximal peak current, % of the acetylcholine response (human nAChR α7 [3]): 63%
- maximal peak current relative to acetylcholine (human nAChR α7 [4]): 69%
- net charge relative to acetylcholine (human nAChR α7 [4]): 53%
- 5-HT3 receptor antagonism (5-HT3 receptor): potent 5-HT3 receptor antagonists
